Laboratory results from article PMC6112376, “Comprehensive Analyses and Prioritization of Tox21 10K Chemicals Affecting Mitochondrial Function by in-Depth Mechanistic Studies” (Environmental Health Perspectives, 2018).
Counter-ions that a name gives are not always drawn. Like-named read-outs stand apart in the source and are kept apart here.

How the values were obtained:
HepG2 cells [1] = conditions: for IC50: read-out: MMP assays IC50 (µM) HepG2
rat primary hepatocytes [2] = tested on: rat primary hepatocytes
HepG2 cells [3] = conditions: cited from earlier work
rat primary hepatocytes [4] = assay: MMP assay in rat primary hepatocytes; conditions: for IC50: read-out: MMP assays IC50 (µM) Rat Hepatocytes
[5] = HepG2 cells, single number from one experiment
[6] = read-out: MMP assays IC50 (µM), qHTS-HepG2
[7] = read-out: MMP assays IC50 (µM) qHTS-HepG2

Compound	MMP assays efficacy (%) HepG2 (HepG2 cells [1]; [5])	IC50 (HepG2 cells [1]; [5])	MMP assays efficacy (%) Rat Hepatocytes (rat primary hepatocytes [2])	IC50 (HepG2 cells [3]; [6])	IC50 (rat primary hepatocytes [4]; rat hepatocytes, mean ± SD of three experiments)	MMP assays efficacy (%) HepG2 (HepG2 cells [1])	IC50 (HepG2 cells [1])	MMP assays efficacy (%) qHTS-HepG2 (HepG2 cells [3])	IC50 (HepG2 cells [3]; [7])	IC50 (rat primary hepatocytes [4])	MMP assays IC50 (µM) HepG2 (HepG2 cells [1])	MMP assays IC50 (µM) Rat Hepatocytes (rat primary hepatocytes [4])	IC50 (rat primary hepatocytes [4]; Rattus norvegicus, Hepatocyte)	MMP assays IC50 (µM) qHTS-HepG2 (HepG2 cells [3])
COC(=O)c1c(C)cc(O)c(C)c1O	-103%	25.1 µM	-81±57%	16 ± 6.62 µM	30.6 ± 28.4 µM									
Dinocap			-93±7%			-100%	0.63 µM	-94±10%	0.34 ± 0.3 µM	4.1 ± 2.16 µM				
CCC1(c2ccccc2)C(=O)NC(=O)N(C(=O)c2ccccc2)C1=O (centres unmarked) [Benzobarbital]			inactive			inactive		-82±27%	24.1 ± 5.12 µM		inactive	inactive		
Cc1c([N+](=O)[O-])c(C)c([N+](=O)[O-])c(C(C)(C)C)c1[N+](=O)[O-]			inactive			-24%	7.94 µM	-82±11%	20.1 ± 6.09 µM			inactive		
O=[N+]([O-])c1ccc(F)c([N+](=O)[O-])c1 [1-Fluoro-2,4-dinitrobenzene]			-68±38%			-103%	5.48 µM	-104±8%	3.71 ± 0.6 µM	8.3 ± 5.67 µM				
CSc1nc(NC2CC2)nc(NC(C)(C)C)n1 [Cybutryne]			-69±43%			inactive		-81±18%	20.9 ± 13.9 µM	14.3 ± 16 µM	inactive			
CCO[Si](CC(C)C)(OCC)OCC [Triethoxy(2-methylpropyl)silane]			inactive	28.9 ± 6.98 µM		-83%	35.5 µM	-66±5%				inactive		
Nc1c(Br)cc(Br)c2c1C(=O)c1ccccc1C2=O [1-Amino-2,4-dibromoanthraquinone]			-48±19%			inactive		-54±9%	2.78 ± 3.75 µM		inactive		27.4 ± 4.44 µM	
CCCCCCCCCCCCCC[n+]1ccc(C)cc1.[Cl-] [Miripirium chloride]			-106±27%	16.4 ± 4.01 µM		-121%		-86±9%		19.5 ± 2.25 µM				
C[C@]12CC[C@@H]3c4ccc(O)cc4CC[C@H]3[C@@H]1CC[C@@H]2OP(=O)(O)O [Estradiol phosphate]			inactive			inactive		inactive			inactive	inactive		inactive
CN(N=O)c1ccc([N+](=O)[O-])cc1 [N-Nitroso-N-methyl-4-nitroaniline]			-69+6%			inactive		inactive		20 ± 16.6 µM	inactive			inactive
COc1ccc(O)c(C(C)(C)C)c1 [Compound 2-tert-Butyl-4-methoxyphenol]			-53±11%				35.5 µM	-92±3%	25.3 ± 1.71 µM	36.5 ± 19.2 µM				
CCN1CCC2(CC1)COc1cc3c(cc12)N(C(=O)c1ccc(-c2ccc(-c4nnc(C)o4)cc2C)cc1)CC3.Cl			-109±26%			-111%	19.9 µM	-58±10%	6.09 ± 2.54 µM	40.9 ± 16 µM				
CCCCCc1cc(O)c2c(c1)OC(C)(C)[C@@H]1CCC(C)=C[C@@H]21			inactive			-99%	15.5 µM	-124±8%	4.99 ± 1.66 µM			inactive		
CC(=O)[C@]1(O)Cc2c(O)c3c(c(O)c2[C@@H](O[C@H]2C[C@H](N)[C@H](O)[C@H](C)O2)C1)C(=O)c1ccccc1C3=O [Idarubicin hydrochloride]			-38±9%	6.83 ± 1.46 µM		inactive		-124±48%			inactive		27 ± 10.7 µM	
C=C(C)C(=O)OCC(O)COc1ccc(C(C)(C)c2ccc(OCC(O)COC(=O)C(=C)C)cc2)cc1 (centres unmarked) [Bisphenol A glycidyl methacrylate]			-70±50%			-118%	15.8 µM	-121±28%	12.2 ± 11.9 µM	38.1 ± 9.22 µM				
c1ccc(C2(N3CCCC3)CCCCC2)cc1 [Rolicyclidine]			inactive	22.3 ± 2.32 µM		inactive		-97±15%			inactive	inactive		
Oc1ccc(C(c2ccc(O)cc2)C(Cl)(Cl)Cl)cc1			-89±3%			-103%	10 µM	-101±13%	8.78 ± 1.43 µM	33.2 ± 24.2 µM				
[OH-].c1cc[c]([Sn+]([c]2ccccc2)[c]2ccccc2)cc1 [Triphenyltin hydroxide]			-118±53%	0.12 ± 0.03 µM		-94%	1.12 µM	-95±9%		14.8 ± 5.12 µM				
CN1C[C@H](C(=O)N[C@]2(C)O[C@@]3(O)[C@@H]4CCCN4C(=O)[C@H](Cc4ccccc4)N3C2=O)C=C2c3cccc4[nH]cc(c34)C[C@H]21 [Ergotamine D-tartrate]			inactive			inactive		-54±10%	7.55 ± 1.06 µM		inactive	inactive		
CC(c1ccc(O)cc1)c1ccc(O)cc1 [Bisphenol E]			-56±19%			-147%	25.1 µM	-127±8%	27.6 ± 1.8 µM	36.5 ± 19.2 µM				
Cresyl diphenyl phosphate			-76±37%			-91%	3.55 µM		2.38 ± 2.32 µM	23 ± 9 µM				
ClC1C(Cl)C(Cl)C(Cl)C(Cl)C1Cl (stereo not drawn) [alpha-1,2,3,4,5,6-Hexachlorocyclohexane]			-54±20%			inactive		-54±7%	49 ± 6.35 µM	39.8 µM	inactive			
O=C(c1ccc(OCCN2CCCCC2)cc1)c1c(-c2ccc(O)cc2)sc2cc(O)ccc12 [Raloxifene hydrochloride]			-87±14%	6.69 ± 1.65 µM		-127%	7.94 µM	-98±9%		20.9 ± 7.23 µM				
CC1=Nc2ccc3ccccc3c2C1(C)C [1,1,2-Trimethyl-1H-benzo[e]indole]			-100±23%			-96%	10 µM	-76±16%	23.4 ± 4.03 µM	34.9 ± 8.48 µM				
